# Legend:
# [1] = test system: panel of B-cell lymphoma cell lines; assay: anti-proliferative CellTiter-Glo assay, whole panel; type: cell-based; details: all cell lines of the B-cell lymphoma panel
# Experimental: Cell viability was measured using the CellTiter–Glo assay (Promega, USA) according to the manufacturer’s instructions, and […] was measured in a Bio-red Microplate reader (Bio-Red, USA).
# [2] = test system: ADCK4; assay: KINOMEscan; type: binding; details: 1000 nM
# [3] = test system: ALK(C1156Y); assay: KINOMEscan; type: binding; details: 1000 nM
# [4] = target: T1, BMX (Homo sapiens, UniProt P51813); assay: KINOMEscan; type: binding; details: 1000 nM
# T1 construct: purchased Invitrogen (Carlsbad, CA, USA)
# T1 sequence (P51813 1-675): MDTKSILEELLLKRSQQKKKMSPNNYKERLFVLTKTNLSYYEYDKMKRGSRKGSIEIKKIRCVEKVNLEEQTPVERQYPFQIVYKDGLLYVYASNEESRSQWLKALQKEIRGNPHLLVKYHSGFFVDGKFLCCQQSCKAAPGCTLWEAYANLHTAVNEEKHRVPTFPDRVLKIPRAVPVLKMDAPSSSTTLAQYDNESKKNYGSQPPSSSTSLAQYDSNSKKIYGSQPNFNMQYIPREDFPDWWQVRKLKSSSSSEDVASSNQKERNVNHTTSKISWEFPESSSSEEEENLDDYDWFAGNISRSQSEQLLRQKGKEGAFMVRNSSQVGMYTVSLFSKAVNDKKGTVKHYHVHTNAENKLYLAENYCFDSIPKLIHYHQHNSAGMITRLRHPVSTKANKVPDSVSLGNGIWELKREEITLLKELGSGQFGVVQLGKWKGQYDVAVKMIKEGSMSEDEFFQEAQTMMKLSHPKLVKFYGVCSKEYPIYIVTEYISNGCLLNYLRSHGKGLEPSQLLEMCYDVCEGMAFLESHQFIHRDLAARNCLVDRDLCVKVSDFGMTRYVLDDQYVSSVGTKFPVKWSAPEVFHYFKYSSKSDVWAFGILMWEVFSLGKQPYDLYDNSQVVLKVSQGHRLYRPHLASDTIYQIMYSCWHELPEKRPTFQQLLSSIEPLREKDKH
# [5] = test system: BRK; assay: KINOMEscan; type: binding; details: 1000 nM
# [6] = test system: CSNK1D; assay: KINOMEscan; type: binding; details: 1000 nM
# [7] = test system: CSNK1G2; assay: KINOMEscan; type: binding; details: 1000 nM
# [8] = test system: CTK; assay: KINOMEscan; type: binding; details: 1000 nM
# [9] = test system: DYRK2; assay: KINOMEscan; type: binding; details: 1000 nM
# [10] = test system: EGFR(L858R,T790M); assay: KINOMEscan; type: binding; details: 1000 nM
# [11] = test system: EPHB6; assay: KINOMEscan; type: binding; details: 1000 nM
# [12] = test system: FES; assay: KINOMEscan; type: binding; details: 1000 nM
# [13] = test system: FGFR4; assay: KINOMEscan; type: binding; details: 1000 nM
# [14] = test system: FLT3(ITD,D835V); assay: KINOMEscan; type: binding; details: 1000 nM
# [15] = test system: GRK2; assay: KINOMEscan; type: binding; details: 1000 nM
# [16] = test system: IKK-alpha; assay: KINOMEscan; type: binding; details: 1000 nM
# [17] = test system: KIT(D816V); assay: KINOMEscan; type: binding; details: 1000 nM
# [18] = test system: LIMK2; assay: KINOMEscan; type: binding; details: 1000 nM
# [19] = test system: LYN; assay: KINOMEscan; type: binding; details: 1000 nM
# [20] = test system: MAK; assay: KINOMEscan; type: binding; details: 1000 nM
# [21] = test system: MAP3K2; assay: KINOMEscan; type: binding; details: 1000 nM
# [22] = test system: MKNK2; assay: KINOMEscan; type: binding; details: 1000 nM
# [23] = test system: MRCKB; assay: KINOMEscan; type: binding; details: 1000 nM
# [24] = test system: NDR1; assay: KINOMEscan; type: binding; details: 1000 nM
# [25] = test system: NEK6; assay: KINOMEscan; type: binding; details: 1000 nM
# [26] = test system: PAK3; assay: KINOMEscan; type: binding; details: 1000 nM
# [27] = test system: PIK3C2G; assay: KINOMEscan; type: binding; details: 1000 nM
# [28] = test system: PIK3CA; assay: KINOMEscan; type: binding; details: 1000 nM
# [29] = test system: PIK3CD; assay: KINOMEscan; type: binding; details: 1000 nM
# [30] = test system: PIM2; assay: KINOMEscan; type: binding; details: 1000 nM
# [31] = test system: PKAC-alpha; assay: KINOMEscan; type: binding; details: 1000 nM
# [32] = test system: ROS1; assay: KINOMEscan; type: binding; details: 1000 nM
# [33] = test system: RPS6KA4(Kin.Dom.1-N-terminal); assay: KINOMEscan; type: binding; details: 1000 nM
# [34] = test system: RSK3(Kin.Dom.2-C-terminal); assay: KINOMEscan; type: binding; details: 1000 nM
# [35] = test system: S6K1; assay: KINOMEscan; type: binding; details: 1000 nM
# [36] = test system: SRPK1; assay: KINOMEscan; type: binding; details: 1000 nM
# [37] = test system: SRPK3; assay: KINOMEscan; type: binding; details: 1000 nM
# [38] = test system: TAOK3; assay: KINOMEscan; type: binding; details: 1000 nM
# [39] = test system: TRKC; assay: KINOMEscan; type: binding; details: 1000 nM
# [40] = test system: TRPM6; assay: KINOMEscan; type: binding; details: 1000 nM
# [41] = test system: TYK2(JH1domain-catalytic); assay: KINOMEscan; type: binding; details: 1000 nM
# [42] = test system: YSK4; assay: KINOMEscan; type: binding; details: 1000 nM
smiles,measurement,setting,value
C=CC(=O)Nc1cc(Nc2cc(-c3cccc(NC(=O)c4cc5c(s4)CCCC5)c3C)cn(C)c2=O)ccc1N1CCN(CC)CC1 [CHMFL-BTK-85],GI50s,[1],< 2 µM
same,Percent Control,[2],100%
same,Percent Control,[3],100%
same,percent of control binding at 1 µM,[4],59%
same,Percent Control,[5],21%
same,Percent Control,[6],82%
same,Percent Control,[7],98%
same,Percent Control,[8],99%
same,Percent Control,[9],98%
same,Percent Control,[10],99%
same,Percent Control,[11],69%
same,Percent Control,[12],98%
same,Percent Control,[13],92%
same,Percent Control,[14],100%
same,Percent Control,[15],100%
same,Percent Control,[16],100%
same,Percent Control,[17],71%
same,Percent Control,[18],100%
same,Percent Control,[19],100%
same,Percent Control,[20],89%
same,Percent Control,[21],100%
same,Percent Control,[22],100%
same,Percent Control,[23],75%
same,Percent Control,[24],100%
same,Percent Control,[25],100%
same,Percent Control,[26],100%
same,Percent Control,[27],63%
same,Percent Control,[28],82%
same,Percent Control,[29],100%
same,Percent Control,[30],87%
same,Percent Control,[31],100%
same,Percent Control,[32],98%
same,Percent Control,[33],87%
same,Percent Control,[34],79%
same,Percent Control,[35],100%
same,Percent Control,[36],100%
same,Percent Control,[37],83%
same,Percent Control,[38],100%
same,Percent Control,[39],100%
same,Percent Control,[40],100%
same,Percent Control,[41],100%
same,Percent Control,[42],100%

# From paper PMC7490411 (Signal Transduction and Targeted Therapy, 2020)
